Molecules are shown by their SMILES. Like-named read-outs stand apart in the source and are kept apart here.

Here are results for one compound from US10328062B2, “Biomarkers and use of MET inhibitor for treatment of cancer” (AMGEN, INC., priority 2014, dated 2019).

For one series, the system named is EBC-1. As to the kind of experiment: 72 hour cancer cell line viability assay (CellTiter-Glo). It counts as cell-based. To be noted: Homo sapiens; EBC-1, NSCLC; MET copy number High, focal Yes; 72 hour viability. Here is the method:
(§1) Human cancer cell lines were purchased from ATCC, JCRB, Sigma Aldrich or DSMZ. All cell lines were propagated in growth media per the suppliers' recommendation and maintained in 5% CO2 and 37° C.
(§2) Cancer cell line viability assays were carried out using the CellTiter-Glo Luminescent Cell Viability Assay from Promega (Madison, Wis.). Optimal cell seeding densities were determined using time lapse imaging to maximize signal window and ensure cells were not contact growth inhibited at the 72 hour time point. Cells were seeded in 96 well plates in complete growth media and allowed to adhere to the bottom of the plate by incubation at 37° C. and 5% CO2 overnight. […] Plates were incubated at 37° C. and 5% CO2 for 72 hours. Treated plates were then allowed to equilibrate to room temperature along with, CellTiter-Glo substrate and buffer solution prior to use in the viability assay. CellTiter-Glo substrate vials were reconstituted in 10 mL of buffer solution and added to assay plates in 100 μL/well volumes. Plates were shaken for 2 minutes at 700 rotations per minute with an orbit diameter of 3 mm followed by room temperature incubation for 10 minutes. Plates were then read using an Envision plate reader on luminescent setting.
(§3) Threshold for high vs low MET copy number was set at aCGH log 2 ratio of 2.5. Focal nature of MET copy number increase was defined qualitatively using tiled aCGH results for chromosome 7.

A further series relates to CAL-54. The series is described as above. It counts as cell-based. To be noted: Homo sapiens; CAL-54, Kidney; MET copy number Low, focal No; 72 hour viability. As to the method: as §1, §2, §3
A further series deals with NUGC-4. The description is as above. To be noted: Homo sapiens; NUGC-4, Gastric; MET copy number Low, focal Yes; 72 hour viability. It counts as cell-based. Here is the method: as §1, §2, §3
The test system of a further series is HCC1395. The description is as above. It counts as cell-based. To be noted: Homo sapiens; HCC1395, breast; MET copy number Low, focal No; 72 hour viability. Here is the method: as §1, §2, §3
The next series concerns G-361. Described as above. It counts as cell-based. To be noted: Homo sapiens; G-361, Melanoma; MET copy number Low, focal No; 72 hour viability. As to the method: as §1, §2, §3
The next series deals with HOP-92. Described as above. It counts as cell-based. To be noted: Homo sapiens; HOP-92, NSCLC; MET copy number Low, focal No; 72 hour viability. Here is the method:
as §1, §2, §3

The test system of another series is Alexander. The series is described as above. It counts as cell-based. To be noted: Homo sapiens, Liver, MET copy number Low, focal No, 72 hour viability. Here is the method:
as §1, §2, §3

The test system of another series is NCI-H1573. The description is as above. It counts as cell-based. To be noted: Homo sapiens. As to the method: as §1, §2, §3
The subject of another series is NCI-H820. The series is described as above. It counts as cell-based. To be noted: Homo sapiens; NCI-H820, NSCLC; MET copy number Low, focal No; 72 hour viability. As to the method:
as §1, §2, §3

A further series deals with NCI-H1648. Described as above. It counts as cell-based. To be noted: Homo sapiens; NCI-H1648, NSCLC; MET copy number Low, focal Yes; 72 hour viability. As to the method:
as §1, §2, §3

The next series concerns C32. The description is as above. It counts as cell-based. To be noted: Homo sapiens; C32, Melanoma; MET copy number Low, focal No; 72 hour viability. As to the method:
as §1, §2, §3

The next series has as its system Hs 746T. The series is described as above. It counts as cell-based. To be noted: Homo sapiens, Hs746T, Gastric, MET copy number High, focal Yes, 72 hour viability. As to the method: as §1, §2, §3
In the next series the test system is Malme-3M. Described as above. It counts as cell-based. To be noted: Homo sapiens, Melanoma, MET copy number Low, focal No, 72 hour viability. As to the method:
as §1, §2, §3

Another series deals with AU-565. Described as above. To be noted: Homo sapiens, AU565; AU-565, Breast; MET copy number Low, focal No; 72 hour viability. It counts as cell-based. As to the method:
as §1, §2, §3

Series [1] deals with MET amplified SNU5 gastric cancer tumor xenograft. Nature of the series: SNU5 gastric cancer tumor xenograft model. It counts as in vivo, athymic nude mice. To be noted: 0.3, 1, 3 and 10 mg/kg oral gavage once daily. As to the method:
Animals. Female athymic nude mice 6 weeks of age were obtained from Harlan Laboratories (Indianapolis, Ind.). Animals were housed in sterilized caging and received Harlan Teklad autoclavable or irradiated rodent diet and water ad libitum. All of the procedures were conducted as described in an animal care and use protocol approved by Amgen's Institutional Animal Care and Use Committee. The program of animal care is fully accredited by the Association for Assessment and Accreditation of Laboratory Animal Care International.
Xenograft Studies. MKN45 (3×106 with Matrigel at a ratio of 2:1), SNU-5 (5×106 with Matrigel at a ratio of 2:1) cells were injected subcutaneously in the right flank of female athymic nude mice (n=10 per group). […] All mice were dosed by oral gavage once daily. Tumor volume was measured twice weekly with a Pro-Max Fowler Digital Ultra Caliper (Fred Fowler Co., Inc.) as length (mm)×width (mm)×height (mm) and expressed as cubic millimeters. Data are expressed as mean±standard error for each group and plotted as a function of time. The statistical significance of observed differences between growth curves was evaluated by repeated measures ANOVA followed by Dunnett's post hoc test.
Tumor volumes were measured twice weekly until the conclusion of the study.

Series [2] in a line: Body weight and tolerability in HCC PDX models. To be noted: LI0612 and LI1078 models. It counts as in vivo. Here is the method: Two HCC patient-derived tumor xenograft (PDX) mouse models were established by directly inoculated subcutaneously with primary human HCC tumor tissues into female BABL/c nude mice. Briefly, each mouse (8-10 weeks old) was purchased from Shanghai Laboratory Animal Center (SLAC). All the animal experiments were performed according to the guidelines approved by the Institutional Animal Care and Use Committee (IACUC). The treatment was started when the average size reached about 180 mm^3. Mice were allocated randomly into four experiment groups (12 animals per group) according to their tumor sizes. […]. The tumor size and body weight were measured twice weekly. The length, width, and height of tumors were measured with a caliper. The tumor volume was calculated as L×W×H and expressed in mm^3. The percentage of tumor growth inhibition (% TGI=100%−(VTi−VT0)/(VCi−VC0)*100%) was calculated for evaluating anti-tumor efficacy. VTi, mean tumor size in treatment group on the Day i; VT0, mean tumor volume in treatment group on Day 0; VCi, mean tumor size in vehicle group on Day i; VC0, mean tumor size in vehicle group on Day 0.
Mice with subcutaneously established tumor tissues were randomly grouped and treated with vehicle or Compound Mat doses of 3, 10 and 30 mg/kg once daily by oral administration for 14 days. […]. […]. […]

The term IC50 denotes the midpoint of a concentration-inhibition curve. In the case of `COCCOc1cnc2ccn([C@H](C)c3nnc4c(F)cc(-c5cnn(C)c5)cn34)c(=O)c2c1` [Compound M, 6-{(1R)-1-[8-fluoro-6-(1-methyl-1H-pyrazol-4-yl)[1,2,4]triazolo[4,3-a]pyridin-3-yl]ethyl}-3-(2-methoxyethoxy)-1,6-naphthyridin-5(6H)-one], the IC50 is 8 nM in the series on EBC-1; > 3000 nM in the series with CAL-54; > 3000 nM in the series with NUGC-4; > 3000 nM in the series with HCC1395; > 3000 nM with G-361; > 3000 nM with HOP-92. The IC50 with Alexander is > 3000 nM; in the series with NCI-H1573 (NCI-H1573, NSCLC, MET copy number High, focal Yes, 72 hour viability, read-out: IC50) it was > 3000 nM; in the series with NCI-H1573 (NCI-H1573, high level focal MET amplification (log 2 ratio=2.9), KRAS G12A, read-out: viability assay IC50), > 3000 nM; in the series on NCI-H820, > 3000 nM; with NCI-H1648, > 3000 nM; in the series with C32, > 3000 nM. Moreover, the figures for the IC50 in the series with Hs 746T, in the series on Malme-3M and in the series on AU-565 were 3 nM, > 3000 nM and > 3000 nM, respectively. In series [1], the “anti-tumor efficacy” value is given as “robust dose dependent anti-tumor efficacy”. Moreover, the body weight entry in series [2] (3, 10, 30 mg/kg once daily, 14 days) is “no significant body weight changed or lost”. The tolerability entry in [2] (all dose levels) is “well tolerated”.
